Consider 23 compounds from US11136329B2, “JAK inhibitors” (Vimalan Biosciences, Inc., priority 2019, dated 2021).

What all share (format): biochemical
One experiment deals with JAK1 (Homo sapiens (Human), UniProt P23458). Description: JAK/TYK2 assay (Kinase Glo luminescence), JAK1. The conditions noted are these: 7.5 nM enzyme, 2 uM ATP, 30 uM IRS-1, 1 hr. The method, boiled down: (§1)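 Enzyme was […] mixed with compound in HEPES buffer pH 7.5 (10 mM MgCl2, 1 mM DTT, 0.01% Tween), then substrate mixture added; reaction ran 1-2 hours at 25° C. Kinase Glo reagent stopped it and gave luminescence, lower signal meaning higher kinase activity.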
In general terms: Kinase-Glo reads ATP consumption through a luciferase reaction.

Another experiment addresses JAK2 (Homo sapiens (Human), UniProt O60674). Description: JAK/TYK2 assay (Kinase Glo luminescence), JAK2. The conditions noted are these: 0.8 nM enzyme, 2 uM ATP, 4 uM pEY, 1 hr. The method, boiled down:
as §1

The target of the next experiment is JAK3 (Homo sapiens (Human), UniProt P52333). Description: JAK/TYK2 assay (Kinase Glo luminescence), JAK3. The conditions noted are these: 1.5 nM enzyme, 2 uM ATP, 4 uM pEY, 1 hr. Summed up:
as §1

For a further experiment, the target named is TYK2 (Homo sapiens (Human), UniProt P29597). Briefly: JAK/TYK2 assay (Kinase Glo luminescence), TYK2. The conditions noted are these: 9 nM enzyme, 2 uM ATP, 30 uM IRS-1, 1 hr. The method, boiled down: as §1
TYK2, sequence (P29597 whole entry, species assumed): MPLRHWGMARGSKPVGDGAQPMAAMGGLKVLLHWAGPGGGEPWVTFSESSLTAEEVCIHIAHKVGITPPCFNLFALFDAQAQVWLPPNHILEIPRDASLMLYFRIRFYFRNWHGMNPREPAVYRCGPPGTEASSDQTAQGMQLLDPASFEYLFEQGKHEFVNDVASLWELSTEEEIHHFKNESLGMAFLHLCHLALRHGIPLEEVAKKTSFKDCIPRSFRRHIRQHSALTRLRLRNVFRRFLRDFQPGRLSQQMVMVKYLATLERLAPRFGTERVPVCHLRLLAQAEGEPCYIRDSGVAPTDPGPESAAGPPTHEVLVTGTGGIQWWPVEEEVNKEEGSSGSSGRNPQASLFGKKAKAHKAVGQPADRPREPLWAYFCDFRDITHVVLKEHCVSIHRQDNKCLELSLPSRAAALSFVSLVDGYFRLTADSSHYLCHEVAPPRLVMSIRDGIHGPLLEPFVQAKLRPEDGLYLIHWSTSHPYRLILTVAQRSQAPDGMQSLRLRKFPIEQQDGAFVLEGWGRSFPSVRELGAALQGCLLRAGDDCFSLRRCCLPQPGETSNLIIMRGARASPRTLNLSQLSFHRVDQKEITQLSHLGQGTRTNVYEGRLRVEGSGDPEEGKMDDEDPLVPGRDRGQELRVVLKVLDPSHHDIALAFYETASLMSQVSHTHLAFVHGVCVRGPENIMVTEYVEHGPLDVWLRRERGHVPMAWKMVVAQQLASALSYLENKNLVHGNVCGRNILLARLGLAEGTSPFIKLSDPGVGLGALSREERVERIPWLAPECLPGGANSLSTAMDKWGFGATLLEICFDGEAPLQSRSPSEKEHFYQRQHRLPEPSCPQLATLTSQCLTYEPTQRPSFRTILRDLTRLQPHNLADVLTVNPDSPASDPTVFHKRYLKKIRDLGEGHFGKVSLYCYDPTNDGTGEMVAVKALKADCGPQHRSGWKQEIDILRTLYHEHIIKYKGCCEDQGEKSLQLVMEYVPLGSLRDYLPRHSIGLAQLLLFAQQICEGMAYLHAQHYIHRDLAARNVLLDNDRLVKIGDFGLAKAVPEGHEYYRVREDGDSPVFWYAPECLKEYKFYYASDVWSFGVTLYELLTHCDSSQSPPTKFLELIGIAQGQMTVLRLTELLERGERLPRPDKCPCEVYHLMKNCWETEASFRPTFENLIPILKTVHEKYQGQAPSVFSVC

JAK3, sequence (P52333 whole entry, species assumed): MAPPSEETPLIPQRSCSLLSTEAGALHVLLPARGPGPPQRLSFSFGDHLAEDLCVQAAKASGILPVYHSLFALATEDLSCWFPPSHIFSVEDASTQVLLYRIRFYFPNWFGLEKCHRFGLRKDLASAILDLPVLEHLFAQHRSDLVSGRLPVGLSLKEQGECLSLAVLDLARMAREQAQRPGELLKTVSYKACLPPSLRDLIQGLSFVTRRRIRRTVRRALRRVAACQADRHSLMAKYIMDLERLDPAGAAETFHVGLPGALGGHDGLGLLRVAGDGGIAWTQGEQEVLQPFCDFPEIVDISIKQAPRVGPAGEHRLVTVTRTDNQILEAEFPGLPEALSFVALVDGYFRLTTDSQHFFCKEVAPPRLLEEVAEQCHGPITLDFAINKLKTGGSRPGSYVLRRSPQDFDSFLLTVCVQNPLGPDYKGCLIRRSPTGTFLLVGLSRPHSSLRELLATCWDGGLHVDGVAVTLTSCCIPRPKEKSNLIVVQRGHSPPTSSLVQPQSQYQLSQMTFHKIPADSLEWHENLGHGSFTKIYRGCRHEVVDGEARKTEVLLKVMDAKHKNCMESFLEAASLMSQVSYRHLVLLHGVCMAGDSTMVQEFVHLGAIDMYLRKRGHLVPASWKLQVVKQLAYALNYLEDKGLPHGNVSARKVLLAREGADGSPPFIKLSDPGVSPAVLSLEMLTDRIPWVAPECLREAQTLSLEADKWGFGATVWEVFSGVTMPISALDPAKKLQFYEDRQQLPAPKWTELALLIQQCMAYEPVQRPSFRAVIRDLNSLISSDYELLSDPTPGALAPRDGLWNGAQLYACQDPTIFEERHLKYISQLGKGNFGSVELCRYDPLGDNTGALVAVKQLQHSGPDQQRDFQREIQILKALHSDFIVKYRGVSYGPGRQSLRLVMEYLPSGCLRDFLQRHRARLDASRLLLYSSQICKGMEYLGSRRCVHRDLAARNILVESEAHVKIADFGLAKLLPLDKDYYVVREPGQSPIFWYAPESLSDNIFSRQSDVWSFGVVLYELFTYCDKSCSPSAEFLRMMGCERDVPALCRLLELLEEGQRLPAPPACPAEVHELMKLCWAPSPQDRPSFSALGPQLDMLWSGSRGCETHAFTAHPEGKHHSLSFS
JAK2, sequence (O60674 whole entry, species assumed): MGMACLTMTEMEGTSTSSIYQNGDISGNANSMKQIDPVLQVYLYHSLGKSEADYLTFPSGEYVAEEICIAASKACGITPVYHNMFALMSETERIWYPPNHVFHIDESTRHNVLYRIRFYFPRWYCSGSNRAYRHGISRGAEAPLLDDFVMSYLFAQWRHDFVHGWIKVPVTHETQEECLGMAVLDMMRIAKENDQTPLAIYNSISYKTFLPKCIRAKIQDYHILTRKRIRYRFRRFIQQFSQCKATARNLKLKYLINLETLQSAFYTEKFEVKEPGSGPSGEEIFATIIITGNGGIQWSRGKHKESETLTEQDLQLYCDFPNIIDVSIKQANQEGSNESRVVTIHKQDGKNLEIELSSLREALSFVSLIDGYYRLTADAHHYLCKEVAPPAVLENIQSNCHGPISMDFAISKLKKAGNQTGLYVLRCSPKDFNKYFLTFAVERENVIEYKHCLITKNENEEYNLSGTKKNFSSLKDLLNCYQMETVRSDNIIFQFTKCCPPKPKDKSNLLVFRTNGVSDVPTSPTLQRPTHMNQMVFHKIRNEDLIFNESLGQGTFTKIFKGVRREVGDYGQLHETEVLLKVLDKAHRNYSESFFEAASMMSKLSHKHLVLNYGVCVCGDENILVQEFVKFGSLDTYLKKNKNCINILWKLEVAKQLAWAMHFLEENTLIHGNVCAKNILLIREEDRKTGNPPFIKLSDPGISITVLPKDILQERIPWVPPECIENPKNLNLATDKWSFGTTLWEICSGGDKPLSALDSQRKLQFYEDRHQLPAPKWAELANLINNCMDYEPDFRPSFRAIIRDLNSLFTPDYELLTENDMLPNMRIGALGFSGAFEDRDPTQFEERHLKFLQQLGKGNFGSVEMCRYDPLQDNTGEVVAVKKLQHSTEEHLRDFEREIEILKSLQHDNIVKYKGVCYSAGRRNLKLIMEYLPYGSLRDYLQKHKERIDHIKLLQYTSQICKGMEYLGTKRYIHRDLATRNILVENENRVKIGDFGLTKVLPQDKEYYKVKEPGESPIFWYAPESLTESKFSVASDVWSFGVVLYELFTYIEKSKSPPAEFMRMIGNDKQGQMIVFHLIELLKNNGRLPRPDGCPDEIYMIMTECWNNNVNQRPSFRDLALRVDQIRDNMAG
JAK1, sequence (P23458 whole entry, species assumed): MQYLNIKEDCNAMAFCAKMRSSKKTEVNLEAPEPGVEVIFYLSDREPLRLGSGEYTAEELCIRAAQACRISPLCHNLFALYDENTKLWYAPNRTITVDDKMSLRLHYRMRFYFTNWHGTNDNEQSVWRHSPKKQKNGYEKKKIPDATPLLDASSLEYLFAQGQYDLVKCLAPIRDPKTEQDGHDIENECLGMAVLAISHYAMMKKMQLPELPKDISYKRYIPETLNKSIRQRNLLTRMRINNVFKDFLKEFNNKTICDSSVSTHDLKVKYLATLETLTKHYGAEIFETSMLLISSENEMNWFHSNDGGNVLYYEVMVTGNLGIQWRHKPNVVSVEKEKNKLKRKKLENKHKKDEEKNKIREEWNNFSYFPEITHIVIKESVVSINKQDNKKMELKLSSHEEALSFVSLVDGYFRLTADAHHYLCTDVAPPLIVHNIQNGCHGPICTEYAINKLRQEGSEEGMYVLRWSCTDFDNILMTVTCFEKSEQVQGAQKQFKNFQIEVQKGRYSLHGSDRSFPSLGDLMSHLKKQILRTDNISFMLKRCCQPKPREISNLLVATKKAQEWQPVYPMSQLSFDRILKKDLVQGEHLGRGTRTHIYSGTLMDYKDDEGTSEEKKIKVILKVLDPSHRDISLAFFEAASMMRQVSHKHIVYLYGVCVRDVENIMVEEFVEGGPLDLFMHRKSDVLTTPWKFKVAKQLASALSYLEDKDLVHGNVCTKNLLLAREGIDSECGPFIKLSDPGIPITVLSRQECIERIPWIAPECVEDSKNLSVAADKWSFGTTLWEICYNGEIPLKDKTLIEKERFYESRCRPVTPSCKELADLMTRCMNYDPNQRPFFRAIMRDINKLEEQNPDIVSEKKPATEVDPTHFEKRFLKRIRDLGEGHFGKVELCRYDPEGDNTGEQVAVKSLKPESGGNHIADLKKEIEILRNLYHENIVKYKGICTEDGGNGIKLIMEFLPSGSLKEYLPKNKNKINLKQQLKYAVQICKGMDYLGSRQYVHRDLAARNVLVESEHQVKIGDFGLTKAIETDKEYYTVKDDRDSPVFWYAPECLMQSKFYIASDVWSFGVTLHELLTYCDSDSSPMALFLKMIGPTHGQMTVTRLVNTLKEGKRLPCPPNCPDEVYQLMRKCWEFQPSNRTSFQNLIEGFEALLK

The term IC50 denotes the concentration needed to halve the response being measured. The low end stands for greater potency, the high end for weaker potency. Take `CCOC(=O)Cn1cc(Nc2ncc3ccn(CC(CC)C(C)C)c3n2)cn1` (centres unmarked) [Compound 49, ethyl 2-(4-((7-(2-ethyl-3-methylbutyl)-7H-pyrrolo[2,3-d]pyrimidin-2-yl)amino)-1H-pyrazol-1-yl)acetate]: the IC50 on JAK1, at JAK2, at JAK3 and against TYK2 was less than 100 nM each time.
For the compound `CCOC(=O)Cn1cc(Nc2ncc3ccn(C[C@@H]4C[C@@H]5C[C@@H]5C4)c3n2)cn1` [Compound 48, ethyl 2-(4-((7-(((1R,3r,5S)-bicyclo[3.1.0]hexan-3-yl)methyl)-7H-pyrrolo[2,3-d]pyrimidin-2-yl)amino)-1H-pyrazol-1-yl)acetate], the IC50 against JAK1, against JAK2, against JAK3 and against TYK2 was less than 100 nM each time.
Consider `CCOC(=O)Cn1cc(Nc2ncc3ccn(CC=C(C)C)c3n2)cn1` [Compound 22, ethyl 2-(4-((7-(3-methylbut-2-en-1-yl)-7H-pyrrolo[2,3-d]pyrimidin-2-yl)amino)-1H-pyrazol-1-yl)acetate], for which the 50% inhibitory concentration (IC50) is 100 to 1000 nM against JAK1, less than 100 nM against JAK2, less than 100 nM against JAK3 and less than 100 nM at TYK2.
For the compound `CC(C)OC(=O)Cn1cc(Nc2ncc3ccn(CC(C(C)C)C(C)C)c3n2)cn1` [Compound 94, isopropyl 2-(4-((7-(2-isopropyl-3-methylbutyl)-7H-pyrrolo[2,3-d]pyrimidin-2-yl)amino)-1H-pyrazol-1-yl)acetate], the concentration for half-maximal inhibition (IC50) against JAK1, at JAK2, at JAK3 and against TYK2 was less than 100 nM throughout.
As for `CCOC(=O)Cn1cc(Nc2ncc3ccn(CC4CCCCC4)c3n2)cn1` [Compound 13, ethyl 2-(4-((7-(cyclohexylmethyl)-7H-pyrrolo[2,3-d]pyrimidin-2-yl)amino)-1H-pyrazol-1-yl)acetate], the IC50 against JAK1, on JAK2, against JAK3 and against TYK2 was less than 100 nM each time.
Consider `CCOC(=O)CCn1cc(Nc2ncc3ccn(C[C@H]4CC[C@H](O)CC4)c3n2)cn1` [Compound 121, ethyl 3-(4-((7-(((1r,4r)-4-hydroxycyclohexyl)methyl)-7H-pyrrolo[2,3-d]pyrimidin-2-yl)amino)-1H-pyrazol-1-yl)propanoate], for which the half-maximal inhibitory concentration (IC50) at JAK1, on JAK2, on JAK3 and against TYK2 was less than 100 nM each time.
Turning to `CCC[C@H](Cn1ccc2cnc(Nc3cnn(CC(=O)OC(C)C)c3)nc21)C(C)C` [Compound 100, isopropyl (S)-2-(4-((7-(2-isopropylpentyl)-7H-pyrrolo[2,3-d]pyrimidin-2-yl)amino)-1H-pyrazol-1-yl)acetate], the half-maximal inhibitory concentration (IC50) at JAK1, at JAK2, at JAK3 and on TYK2 was less than 100 nM each time.
Consider `C=CC[C@H](Cn1ccc2cnc(Nc3cnn(CC(=O)OC(C)C)c3)nc21)C(C)C` [Compound 102, isopropyl (S)-2-(4-((7-(2-isopropylpent-4-en-1-yl)-7H-pyrrolo[2,3-d]pyrimidin-2-yl)amino)-1H-pyrazol-1-yl)acetate], for which the concentration for half-maximal inhibition (IC50) against JAK1, against JAK2, at JAK3 and at TYK2 was less than 100 nM each time.
As to `CCOC(=O)CCn1cc(Nc2ncc3ccn(C[C@@H](CC)C(C)C)c3n2)cn1` [Compound 119, ethyl (S)-3-(4-((7-(2-ethyl-3-methylbutyl)-7H-pyrrolo[2,3-d]pyrimidin-2-yl)amino)-1H-pyrazol-1-yl)propanoate], the half-inhibitory concentration (IC50) on JAK1, at JAK2, against JAK3 and against TYK2 was less than 100 nM throughout.
Consider `CCC(Cn1ccc2cnc(Nc3cnn(CC(=O)O[C@H](C)CO)c3)nc21)C(C)C` (stereo partly drawn) [Compound 106, (R)-1-hydroxypropan-2-yl 2-(4-((7-(2-ethyl-3-methylbutyl)-7H-pyrrolo[2,3-d]pyrimidin-2-yl)amino)-1H-pyrazol-1-yl)acetate], for which the IC50 against JAK1, against JAK2, against JAK3 and against TYK2 was less than 100 nM throughout.
For `CCC(CC)Cn1ccc2cnc(Nc3cnn(CC(=O)OC(C)C)c3)nc21` [Compound 93, isopropyl 2-(4-((7-(2-ethylbutyl)-7H-pyrrolo[2,3-d]pyrimidin-2-yl)amino)-1H-pyrazol-1-yl)acetate], the IC50 at JAK1, on JAK2, against JAK3 and on TYK2 was less than 100 nM each time.
Consider `CC(C)OC(=O)Cn1cc(Nc2ncc3ccn(C[C@@H](CCF)C(C)C)c3n2)cn1` [Compound 99, isopropyl (S)-2-(4-((7-(4-fluoro-2-isopropylbutyl)-7H-pyrrolo[2,3-d]pyrimidin-2-yl)amino)-1H-pyrazol-1-yl)acetate], for which the IC50 against JAK1, against JAK2, at JAK3 and against TYK2 was less than 100 nM throughout.
For `CCC(CC)Cn1ccc2cnc(Nc3cnn(CC(=O)OC(C)C(C)O)c3)nc21` (centres unmarked) [Compound 113, 3-hydroxybutan-2-yl 2-(4-((7-(2-ethylbutyl)-7H-pyrrolo[2,3-d]pyrimidin-2-yl)amino)-1H-pyrazol-1-yl)acetate], the IC50 on JAK1, on JAK2, at JAK3 and at TYK2 was less than 100 nM in each case.
Take `CC[C@H](Cn1ccc2cnc(Nc3cnn(C(CCO)C(=O)O)c3)nc21)C(C)C` (stereo partly drawn) [Compound 136, 2-(4-((7-((S)-2-ethyl-3-methylbutyl)-7H-pyrrolo[2,3-d]pyrimidin-2-yl)amino)-1H-pyrazol-1-yl)-4-hydroxybutanoic acid]: the 50% inhibitory concentration (IC50) on JAK1, against JAK2, at JAK3 and on TYK2 was less than 100 nM in each case.
As to `CCOC(=O)Cn1cc(Nc2ncc3ccn(CC4(C)CCCCC4)c3n2)cn1` [Compound 47, ethyl 2-(4-((7-((1-methylcyclohexyl)methyl)-7H-pyrrolo[2,3-d]pyrimidin-2-yl)amino)-1H-pyrazol-1-yl)acetate], the IC50 at JAK1, at JAK2, on JAK3 and against TYK2 was less than 100 nM throughout.
In the case of `CCOC(=O)Cn1cc(Nc2ncc3ccn(CCC#N)c3n2)cn1` [Compound 24, ethyl 2-(4-((7-(2-cyanoethyl)-7H-pyrrolo[2,3-d]pyrimidin-2-yl)amino)-1H-pyrazol-1-yl)acetate], the half-maximal inhibitory concentration (IC50) on JAK1 is 1000 to 10000 nM; against JAK2, 100 to 1000 nM; on JAK3 it was 100 to 1000 nM; on TYK2, 100 to 1000 nM.
Turning to `CCOC(=O)Cn1cc(Nc2ncc3ccn(CC4CCC(C)CC4)c3n2)cn1` (centres unmarked) [Compound 46, ethyl 2-(4-((7-((4-methylcyclohexyl)methyl)-7H-pyrrolo[2,3-d]pyrimidin-2-yl)amino)-1H-pyrazol-1-yl)acetate], the IC50 against JAK1, at JAK2, against JAK3 and at TYK2 was less than 100 nM throughout.
As for `CCOC(=O)C(C)n1cc(Nc2ncc3ccn(C[C@@H](CC)C(C)C)c3n2)cn1` (stereo partly drawn) [Compound 118, ethyl 2-(4-((7-((S)-2-ethyl-3-methylbutyl)-7H-pyrrolo[2,3-d]pyrimidin-2-yl)amino)-1H-pyrazol-1-yl)propanoate], the half-maximal inhibitory concentration (IC50) against JAK1, on JAK2, against JAK3 and against TYK2 was less than 100 nM in each case.
As for `CCC(CC)Cn1ccc2cnc(Nc3cnn(C4CCOC4=O)c3)nc21` (centres unmarked) [Compound 142, 3-(4-((7-(2-ethylbutyl)-7H-pyrrolo[2,3-d]pyrimidin-2-yl)amino)-1H-pyrazol-1-yl)dihydrofuran-2(3H)-one], the half-inhibitory concentration (IC50) at JAK1, at JAK2, against JAK3 and at TYK2 was less than 100 nM throughout.
For `CCOC(=O)c1ccc(Nc2ncc3ccn(CC(CC)CC)c3n2)cc1` [Compound 26, ethyl 4-((7-(2-ethylbutyl)-7H-pyrrolo[2,3-d]pyrimidin-2-yl)amino)benzoate], the IC50 at JAK1, on JAK2, on JAK3 and at TYK2 was 100 to 1000 nM each time.
On to `CCC(Cn1ccc2cnc(Nc3cnn(CC(=O)OCCO)c3)nc21)C(C)C` (centres unmarked) [Compound 85, 2-hydroxyethyl 2-(4-((7-(2-ethyl-3-methylbutyl)-7H-pyrrolo[2,3-d]pyrimidin-2-yl)amino)-1H-pyrazol-1-yl)acetate], for which the IC50 on JAK1, at JAK2, on JAK3 and at TYK2 was less than 100 nM throughout.
Take `CCC(Cn1ccc2cnc(Nc3cnn(CC(=O)OC(C)C(C)O)c3)nc21)C(C)C` (centres unmarked) [Compound 109, 3-hydroxybutan-2-yl 2-(4-((7-(2-ethyl-3-methylbutyl)-7H-pyrrolo[2,3-d]pyrimidin-2-yl)amino)-1H-pyrazol-1-yl)acetate]: the IC50 on JAK1, against JAK2, against JAK3 and against TYK2 was less than 100 nM throughout.
`CC[C@H](Cn1ccc2cnc(Nc3cnn(CC(=O)OC(C)C)c3)nc21)C(C)C` [Compound 134, isopropyl (S)-2-(4-((7-(2-ethyl-3-methylbutyl)-7H-pyrrolo[2,3-d]pyrimidin-2-yl)amino)-1H-pyrazol-1-yl)acetate]: the IC50 on JAK1, at JAK2, against JAK3 and against TYK2 was less than 100 nM each time.
